Activity and Ki data for 20 compounds are collected here from ChEMBL document CHEMBL3286098, “α-Methylated simplified resiniferatoxin (sRTX) thiourea analogues as potent and stereospecific TRPV1 antagonists” (Bioorg Med Chem Lett, 2014).

As a reminder, the Ki is a dissociation constant, usually derived from enzyme kinetics or from competition with a known ligand.

Active and inactive are the calls of the source. The calls are words filed in the database; no cut-off is given here.

In experiment [1] the target is Transient receptor potential cation channel subfamily V member 1 (Rattus norvegicus) (UniProt O35433). The experiment is described as follows: Agonist activity at rat TRPV1 heterologously expressed in CHO cells assessed as […] [45Ca2+] uptake by liquid scintillation counting. It counts as cell-based.
Transient receptor potential cation channel subfamily V member 1 (Rattus norvegicus), sequence (O35433 whole entry): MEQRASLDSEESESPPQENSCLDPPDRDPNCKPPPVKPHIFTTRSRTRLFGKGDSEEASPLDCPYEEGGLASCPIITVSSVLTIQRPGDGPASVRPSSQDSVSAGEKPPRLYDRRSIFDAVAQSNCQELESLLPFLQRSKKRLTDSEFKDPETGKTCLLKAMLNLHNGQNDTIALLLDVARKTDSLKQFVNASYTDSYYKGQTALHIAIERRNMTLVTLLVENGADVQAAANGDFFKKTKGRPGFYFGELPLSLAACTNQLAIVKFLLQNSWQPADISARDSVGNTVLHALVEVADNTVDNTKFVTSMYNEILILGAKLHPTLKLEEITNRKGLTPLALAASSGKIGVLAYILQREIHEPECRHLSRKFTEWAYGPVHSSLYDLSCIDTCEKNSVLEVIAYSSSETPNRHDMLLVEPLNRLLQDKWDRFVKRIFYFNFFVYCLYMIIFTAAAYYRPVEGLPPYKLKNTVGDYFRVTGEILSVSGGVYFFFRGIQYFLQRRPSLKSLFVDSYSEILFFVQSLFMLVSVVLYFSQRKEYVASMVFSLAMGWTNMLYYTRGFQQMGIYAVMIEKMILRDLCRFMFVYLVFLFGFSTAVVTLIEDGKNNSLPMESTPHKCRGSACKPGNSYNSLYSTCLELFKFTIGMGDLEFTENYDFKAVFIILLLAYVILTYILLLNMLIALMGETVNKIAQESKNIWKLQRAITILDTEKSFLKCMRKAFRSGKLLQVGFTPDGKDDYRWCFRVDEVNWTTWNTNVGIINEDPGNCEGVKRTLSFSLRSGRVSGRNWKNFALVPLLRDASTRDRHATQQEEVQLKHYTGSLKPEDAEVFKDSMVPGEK
Experiment [2] has as its target T1, Transient receptor potential cation channel subfamily V member 1 (Rattus norvegicus, UniProt O35433). As to the kind of experiment: Displacement of [3H]RTX from rat TRPV1 after 60 mins by competitive binding assay.
In experiment [3] the target is T1, Transient receptor potential cation channel subfamily V member 1. The experiment is described as follows: Antagonist activity at rat TRPV1 heterologously expressed in CHO cells assessed as inhibition of capsaicin-induced [45Ca2+] uptake by liquid scintillation counting. It counts as cell-based.

T1 sequence (O35433 whole entry): as above

`C[C@@H](NC(=S)N[C@H](COC(=O)C(C)(C)C)Cc1ccccc1)c1ccc(NS(C)(=O)=O)cc1`: the result in experiment [1] was inactive. Turning to `CC(C)(C)C(=O)OC[C@H](CNC(=S)NCc1ccc(NS(C)(=O)=O)cc1)Cc1ccccc1`, the Ki amounted to 236 nM in experiment [2] and 80.6 nM in experiment [3]. In addition, the outcome in experiment [1] was inactive. For the compound `Cc1ccc(CC(CNC(=S)N[C@H](C)c2ccc(NS(C)(=O)=O)cc2)COC(=O)C(C)(C)C)cc1C` (stereo not given in full), the result in experiment [1] was inactive. Same read-out and setting: the entry for `C[C@@H](NC(=S)NCC(COC(=O)C(C)(C)C)Cc1ccc(C(C)(C)C)cc1)c1ccc(NS(C)(=O)=O)cc1` (stereo not given in full) is “inactive”. The same measure, in the same setting: the entry for `C[C@@H](NC(=S)NC[C@@H](COC(=O)C(C)(C)C)Cc1ccccc1)c1ccc(NS(C)(=O)=O)cc1` is “inactive”.

Take `C[C@H](NC(=S)N[C@H](COC(=O)C(C)(C)C)Cc1ccccc1)c1ccc(NS(C)(=O)=O)cc1`: the outcome in experiment [1] was inactive. Turning to `C[C@@H](NC(=S)NC[C@H](COC(=O)C(C)(C)C)Cc1ccccc1)c1ccc(NS(C)(=O)=O)cc1`, the outcome in experiment [1] was inactive. Same read-out and setting: the entry for `CC(NC(=S)NCC(COC(=O)C(C)(C)C)Cc1ccc(C(C)(C)C)cc1)c1ccc(NS(C)(=O)=O)cc1` (racemic) is “inactive”. `C[C@@H](NC(=S)NC[C@H](COC(=O)C(C)(C)C)Cc1ccc(C(C)(C)C)cc1)c1ccc(NS(C)(=O)=O)cc1` registered an inhibition constant (Ki) in experiment [2] of 17.9 nM. Moreover, in experiment [1], the result was inactive. On the same counts, the results for `C[C@@H](NC(=S)NC[C@@H](COC(=O)C(C)(C)C)Cc1ccc(C(C)(C)C)cc1)c1ccc(NS(C)(=O)=O)cc1` are 6.75 nM and “inactive”.

Regarding `C[C@H](NC(=S)N[C@@H](COC(=O)C(C)(C)C)Cc1ccccc1)c1ccc(NS(C)(=O)=O)cc1`, the result in experiment [1] was inactive. `CC(C)(C)C(=O)OC[C@@H](CNC(=S)NCc1ccc(NS(C)(=O)=O)cc1)Cc1ccc(C(C)(C)C)cc1`: the Ki worked out at 64 nM in experiment [2] and 86 nM in experiment [3].

Consider `C[C@@H](NC(=S)N[C@@H](COC(=O)C(C)(C)C)Cc1ccccc1)c1ccc(NS(C)(=O)=O)cc1`, for which the result in experiment [1] was inactive. Regarding `Cc1ccc(CC(CNC(=S)NC(C)c2ccc(NS(C)(=O)=O)cc2)COC(=O)C(C)(C)C)cc1C` (racemic), in experiment [1], the outcome was inactive. Same read-out and setting: with `C[C@H](NC(=S)NC[C@H](COC(=O)C(C)(C)C)Cc1ccccc1)c1ccc(NS(C)(=O)=O)cc1` the entry was “inactive”; with `Cc1ccc(C[C@H](CNC(=S)N[C@H](C)c2ccc(NS(C)(=O)=O)cc2)COC(=O)C(C)(C)C)cc1C`, “inactive”.

For the compound `Cc1ccc(C[C@H](CNC(=S)NCc2ccc(NS(C)(=O)=O)cc2)COC(=O)C(C)(C)C)cc1C`, the Ki in experiment [2] stood at 29.3 nM; in experiment [3], 67 nM. On to `C[C@H](NC(=S)NC[C@@H](COC(=O)C(C)(C)C)Cc1ccccc1)c1ccc(NS(C)(=O)=O)cc1`, for which the result in experiment [1] was inactive. `CC(C)(C)C(=O)OC[C@@H](CNC(=S)NCc1ccc(NS(C)(=O)=O)cc1)Cc1ccccc1`: the inhibitory constant (Ki) in experiment [2] worked out at 252 nM; in experiment [3] it was 64.3 nM. Further, in experiment [1], the outcome was inactive.

Turning to `Cc1ccc(C[C@@H](CNC(=S)N[C@H](C)c2ccc(NS(C)(=O)=O)cc2)COC(=O)C(C)(C)C)cc1C`, the Ki turned out to be 2.12 nM in experiment [2] and 13.2 nM in experiment [3]. For the same compound, in experiment [1], the outcome was inactive.
